Measured values from US20110306597A1, “Nicotinamide Derivatives” (priority 2008, published 2011).

The molecules below were run against human recombinant H-PGDS (Homo sapiens, UniProt O60760) (assay: Fluorescence Intensity h-PGDS TBA Enzyme Assay). Settings: 1:175,000 human recombinant H-PGDS, highest inhibitor concentration typically 1 μM.
Format: biochemical
Method in brief: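 Recombinant human H-PGDS preincubated 10 min at room temperature with inhibitor in 100 mM Tris pH 8.0, 100 μM MgCl2, 2.5 mM glutathione, 0.5% DMSO; 5.0 μM PGH2 added, stopped after 42 s with FeCl2/citric acid. Remaining PGH2 measured as MDA–TBA fluorescence (ex 530/em 565 nm); IC50 by 4-parameter fit, 11 concentrations.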

human recombinant H-PGDS, sequence (O60760 whole entry): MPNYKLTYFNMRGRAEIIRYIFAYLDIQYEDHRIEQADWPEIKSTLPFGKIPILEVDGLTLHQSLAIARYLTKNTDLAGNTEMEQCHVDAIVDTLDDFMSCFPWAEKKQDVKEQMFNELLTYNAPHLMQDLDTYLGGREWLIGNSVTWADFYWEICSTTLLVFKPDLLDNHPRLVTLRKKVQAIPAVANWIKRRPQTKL

Row | Molecule | IC50 [nM]
1 | O=C(NCC1COc2ccccc2C1)c1ccc(-c2cc(F)cc(F)c2)nc1 (stereo not shown) [Example 542, 6-(3,5-Difluorophenyl)-N-(3,4-dihydro-2H-chromen-3-ylmethyl)nicotinamide] | 39.1
2 | CN(C)CC(C)(C)CNC(=O)c1ccc(-c2ccccc2)nc1 [Example 352, N-[3-(Dimethylamino)-2,2-dimethylpropyl]-6-phenylnicotinamide] | 458
3 | 6-(3-Fluorophenyl)-N-[2- hydroxy-2-(1-methyl-1H- imidazol-2- yl)ethyl]nicotinamide [Example 4] | 59.9
4 | COc1cccc(-c2ccc(C(=O)NCc3ccc(-n4cncn4)cc3)cn2)c1 [Example 291, 6-(3-Methoxyphenyl)-N-[4-(1H-1,2,4-triazol-1-yl)benzyl]nicotinamide] | 203
5 | O=C(NCCCNc1ccccn1)c1ccc(-c2cccc(F)c2)nc1 [Example 197, 6-(3-Fluorophenyl)-N-[3-(pyridin-2-ylamino)propyl]nicotinamide] | 34
6 | CCOC(=O)C(C)(C)NC(=O)c1ccc(-c2cccc(F)c2)nc1 [Example 145, Ethyl N-{[6-(3-fluorophenyl)pyridin-3-yl]carbonyl}-2-methylalaninate] | 223
7 | COC(=O)CNC(=O)[C@H](C)NC(=O)c1ccc(-c2cccc(C)c2)nc1 [Example 229, Methyl N-{[6-(3-methylphenyl)pyridin-3-yl]carbonyl}-L-alanylglycinate] | 125
8 | O=C(NCc1ccc(Cl)cc1)c1ccc(-c2cccc(F)c2)nc1 [Example 410, N-(4-Chlorobenzyl)-6-(3-fluorophenyl)nicotinamide] | 39.8
9 | O=C(NCCN1CCNC1=O)c1ccc(-c2cccc(F)c2)nc1 [Example 148, 6-(3-Fluorophenyl)-N-[2-(2-oxoimidazolidin-1-yl)ethyl]nicotinamide] | 32
10 | COc1cccc(-c2ccc(C(=O)Nc3ccccc3)cn2)c1 [Example 308, 6-(3-Methoxyphenyl)-N-phenylnicotinamide] | 54
11 | COc1cccc(-c2ccc(C(=O)NCc3ccc(OC)c(OC)c3)cn2)c1 [Example 275, N-(3,4-Dimethoxybenzyl)-6-(3-methoxyphenyl)nicotinamide] | 179

Now those with a lower IC50, led by results:

Row | IC50 [nM] | Molecule
12 | 29.2 | Cc1cc(=O)[nH]c(N2CCCC(CNC(=O)c3ccc(-c4cccc(F)c4)nc3)C2)n1 (stereo not shown) [Example 112, 6-(3-Fluorophenyl)-N-{[1-(4-methyl-6-oxo-1,6-dihydropyrimidin-2-yl)piperidin-3-yl]methyl}nicotinamide]
13 | 19.8 | CN(C)CCOc1ccc(CNC(=O)c2cnc(-c3cccc(F)c3)c(Cl)c2)cc1 [Example 561, 5-Chloro-N-{4-[2-(dimethylamino)ethoxy]benzyl}-6-(3-fluorophenyl)nicotinamide]
14 | 18.3 | COc1ccc2nc(CCNC(=O)c3ccc(-c4cccc(F)c4)nc3)[nH]c2c1 [Example 208, 6-(3-Fluorophenyl)-N-[2-(6-methoxy-1H-benzimidazol-2-yl)ethyl]nicotinamide]
15 | 12.5 | O=C(NCCc1nccs1)c1ccc(-c2cccc(F)c2)nc1 [Example 93, 6-(3-Fluorophenyl)-N-[2-(1,3-thiazol-2-yl)ethyl]nicotinamide]
16 | 3.53 | Cc1nc(CCNC(=O)c2ccc(-c3cccc(F)c3)nc2)cs1 [Example 2, 6-(3-Fluorophenyl)-N-[2-(2-methyl-1,3-thiazol-4-yl)ethyl]nicotinamide]
17 | 3.43 | O=C(NCCNc1nccn2ccnc12)c1ccc(-c2cccc(F)c2)nc1 [Example 104, 6-(3-Fluorophenyl)-N-[2-(imidazo[1,2-a]pyrazin-8-ylamino)ethyl]nicotinamide]
18 | 2.57 | CCOC(=O)CC[C@@H](NC(=O)c1ccc(-c2cccc(F)c2)nc1)C(=O)OCC [Example 166, Diethyl N-{[6-(3-fluorophenyl)pyridin-3-yl]carbonyl}-D-glutamate]
19 | 1.12 | Cc1cccc(NC(=O)c2ccc(-c3ccccc3)nc2)c1 [Example 392, N-(3-Methylphenyl)-6-phenylnicotinamide]
